Reference: patent US20250143297A1, “Arthropod Control Compositions” (FIRMENICH SA, priority 2022, published 2025)

Assays:
Aedes aegypti [1] = assay: Warm Body assay, repellence of mosquito landing on treated warm body; assay type: in vivo; details: for reduction of the number of mosquito landing: since the dose of 0.0016%
Anopheles gambiae = assay: as above; assay type: in vivo
Procedure: Anopheles gambiae is also a model organism as it is anthropophilic and transmits malaria.
The controlling effect according to the present invention was assessed using an adapted Warm Body assay as defined in Kröber T, Kessler S, Frei J, Bourquin M, Guerin PM. 2010. J Am Mosq Control Assoc. 26:381-386. In this in-vitro assay the number of mosquito landing on a warm body, simulating an attractive host treated with the tested stimuli, was measured in order to assess the repellence effect.
On the sandblasted glass Petri dish covering the warm body (28.3 cm^2), 100 μL of the compounds diluted at different concentrations in ethanol was applied. The number of mosquito landing on the warm body was counted for each stimulus and pure ethanol (solvent) as control.

Aedes aegypti [2] = assay: Arm-in-cage test on human volunteers; assay type: in vivo; details: arm treated with 20%, three human volunteers
Procedure: The controlling effect, repellence & spatial repellence, according to the present invention is also determined according to an arm in the box method adapted from the WHO Guidelines for efficacy repellents testing of mosquito for human skin (WHO/CDS/NTD/WHOPES/2009.4). The readiness of 100 hungry female mosquitoes A. aegypti to a test substance is assessed by comparing the results of an untreated arm to a treated in when inserted into the cage (40×40×40 cm) for 30 seconds (negative control) three times. Further information is provided in the accompanying examples.
Arm-In-Cage Test is the Large-Scale Test Used to Assess on Human Volunteer the Repellent Efficacy on Mosquitoes.
The Arm in the box method was adapted from the WHO Guidelines for efficacy testing of mosquito repellents for human skin (WHO/CDS/NTD/WHOPES/2009.4). The readiness of 100 hungry female mosquitoes A. aegypti to probe is assessed by inserting an untreated arm into the cage (40×40×40 cm) for 30 seconds (negative control) three times (once at the beginning, once at the fourth hour and once at the eighth hour), to determine probing activity. Then, the product is applied onto the skin of the forearm of a human volunteer (1 mL per 600 cm^2) and after 5 minutes, this arm is inserted into the cage and exposed for 3 minutes. The assay take place in temperature (27±2° C.) and humidity (80±10% RH) regulated room on three different volunteers.

Ixodes ricinus = assay: Warm Plate Assay, tick repellence

SMILES	Percentage of repellence of mosquitoes Aedes aegypti landing on the warm body (Aedes aegypti [1]; 0.016 mg/mL) [%]	Percentage of repellence of mosquitoes Aedes aegypti landing on the warm body (Aedes aegypti [1]; 0.4 mg/mL) [%]	Percentage of repellence of mosquitoes Aedes aegypti landing on the warm body (Aedes aegypti [1]; 10 mg/mL) [%]	Percentage of repellence of mosquitoes Aedes aegypti landing on the warm body (Aedes aegypti [1]; 0.0032 mg/mL) [%]	Percentage of repellence of mosquitoes Aedes aegypti landing on the warm body (Aedes aegypti [1]; 0.08 mg/mL) [%]	Percentage of repellence of mosquitoes Aedes aegypti landing on the warm body (Aedes aegypti [1]; 2 mg/mL) [%]	Percentage of repellence of mosquitoes Anopheles gambiae landing on the warm body (Anopheles gambiae; 4.47 mg/mL) [%]	Percentage of repellence of mosquitoes Anopheles gambiae landing on the warm body (Anopheles gambiae; 10 mg/mL) [%]	also measured
Cc1cc(C(C)(C)C)ccc1CCC=O [compound 859, 3-[2-methyl-4-(2-methyl-2-propanyl)phenyl] propanal]	21	65	98						
CC(C)(O)Cc1ccc(CCC=O)cc1 [compound 867, 3-[4-(2-hydroxy-2-methylpropyl)phenyl]propanal]	13	27	81						
COC(C)(C)c1ccc(CCC=O)c(C)c1 [compound 875, 3-[4-(2-methoxy-2-propanyl)-2-methylphenyl]propanal]	60	81	96	39	24	81	97	100	reduction of the number of mosquito landing (Aedes aegypti [1]): by half; Percentage of repellence of mosquitoes Anopheles gambiae landing on the warm body (Anopheles gambiae; 0.178 mg/mL): 69%; Percentage of repellence of mosquitoes Anopheles gambiae landing on the warm body (Anopheles gambiae; 0.267 mg/mL): 66%; Percentage of repellence of mosquitoes Anopheles gambiae landing on the warm body (Anopheles gambiae; 0.4 mg/mL): 93%; mosquitoes repelled (Anopheles gambiae; lowest concentration tested, 0.0178%): > 60%
COc1ccc(CC(C)C=O)cc1 (stereo not shown) [compound 251, 3-(4-methoxyphenyl)-2-methylpropanal]	0	79	89	0	40	96	100	96	Percentage of repellence of mosquitoes Aedes aegypti landing on the warm body (Aedes aegypti [1]; 0.0071 mg/mL): 0%; Percentage of repellence of mosquitoes Aedes aegypti landing on the warm body (Aedes aegypti [1]; 0.0357 mg/mL): 61%; Percentage of repellence of mosquitoes Aedes aegypti landing on the warm body (Aedes aegypti [1]; 0.053 mg/mL): 54%; Percentage of repellence of mosquitoes Aedes aegypti landing on the warm body (Aedes aegypti [1]; 0.119 mg/mL): 52%; Percentage of repellence of mosquitoes Aedes aegypti landing on the warm body (Aedes aegypti [1]; 0.178 mg/mL): 71%; Percentage of repellence of mosquitoes Aedes aegypti landing on the warm body (Aedes aegypti [1]; 0.267 mg/mL): 97%; Percentage of repellence of mosquitoes Aedes aegypti landing on the warm body (Aedes aegypti [1]; 0.598 mg/mL): 93%; Percentage of repellence of mosquitoes Aedes aegypti landing on the warm body (Aedes aegypti [1]; 0.89 mg/mL): 99%; Percentage of repellence of mosquitoes Aedes aegypti landing on the warm body (Aedes aegypti [1]; 4.47 mg/mL): 97%; percentage of repellence compared to untreated arm (mean ± SD) (Aedes aegypti [2]; 5 min post-application): 100% ±; percentage of repellence compared to untreated arm (mean ± SD) (Aedes aegypti [2]; 1 h post-application): 99.84% ±; percentage of repellence compared to untreated arm (mean ± SD) (Aedes aegypti [2]; 2 h post-application): 98.82% ±; percentage of repellence compared to untreated arm (mean ± SD) (Aedes aegypti [2]; 3 h post-application): 95.59% ±; percentage of repellence compared to untreated arm (mean ± SD) (Aedes aegypti [2]; 4 h post-application): 87.3% ±; percentage of repellence compared to untreated arm (mean ± SD) (Aedes aegypti [2]; 5 h post-application): 81.02% ±; percentage of repellence compared to untreated arm (mean ± SD) (Aedes aegypti [2]; 6 h post-application): 73.75% ±; percentage of repellence compared to untreated arm (mean ± SD) (Aedes aegypti [2]; 7 h post-application): 65.56% ±; percentage of repellence compared to untreated arm (mean ± SD) (Aedes aegypti [2]; 8 h post-application): 64.04% ±
COC(C)(C)c1ccc(CCC=O)cc1 [compound 681, 3-[4-(2-methoxy-2-propanyl)phenyl]propanal]	0	49	92	0	31	89			Percentage of repellence of ticks Ixodes ricinus on the warm plate (Ixodes ricinus; 0.08 mg/mL): 0.0%; Percentage of repellence of ticks Ixodes ricinus on the warm plate (Ixodes ricinus; 0.4 mg/mL): 13.3%; Percentage of repellence of ticks Ixodes ricinus on the warm plate (Ixodes ricinus; 2 mg/mL): 92.3%; Percentage of repellence of ticks Ixodes ricinus on the warm plate (Ixodes ricinus; 10 mg/mL): 92.0%; repellence of ticks Ixodes ricinus (Ixodes ricinus; 0.2% of stimulus applied): above 90%; repellence of ticks Ixodes ricinus (Ixodes ricinus; 1% of stimulus applied): above 90%
CC(C)(C)c1ccc(CCC=O)cc1 [compound 294, 3-(4-tert-butylphenyl)propanal]	57	54	96				96	96	reduction of the number of mosquito landing (Aedes aegypti [1]): by half; Percentage of repellence of mosquitoes Anopheles gambiae landing on the warm body (Anopheles gambiae; 0.178 mg/mL): 42%; Percentage of repellence of mosquitoes Anopheles gambiae landing on the warm body (Anopheles gambiae; 0.267 mg/mL): 14%; Percentage of repellence of mosquitoes Anopheles gambiae landing on the warm body (Anopheles gambiae; 0.4 mg/mL): 55%
CC(C)c1cccc(C(C)CC=O)c1 (stereo not shown) [compound 1389, 3-(3-propan-2-ylphenyl)butanal]	0	81	90	11	53	87	58	96	Percentage of repellence of mosquitoes Aedes aegypti landing on the warm body (Aedes aegypti [1]; 0.0357 mg/mL): 8%; Percentage of repellence of mosquitoes Aedes aegypti landing on the warm body (Aedes aegypti [1]; 0.053 mg/mL): 74%; Percentage of repellence of mosquitoes Aedes aegypti landing on the warm body (Aedes aegypti [1]; 0.178 mg/mL): 30%; Percentage of repellence of mosquitoes Aedes aegypti landing on the warm body (Aedes aegypti [1]; 0.89 mg/mL): 88%; Percentage of repellence of mosquitoes Aedes aegypti landing on the warm body (Aedes aegypti [1]; 4.47 mg/mL): 84%
